Patent US9624758B2, “Use of oligo-quaternary compositions to increase scale inhibitor lifetime in a subterranean formation” (Ecolab USA Inc., priority 2012, dated 2017)
Like-named read-outs stand apart in the source and are kept apart here.

Experiments:
[1] = Compatibility test of scale inhibitor solutions with Product A solution in synthetic brine; assay type: physicochemical; set-up: key: C—Clear; P—Precipitate; details: for Clarity of Mixed Solutions 10:90: ratio 10:90; for Clarity of Mixed Solutions 50:50: ratio 50:50
Description: Individual solutions (Solutions 1B through 1G) of 10% Product B, C, D, E, F and G, respectively, in a synthetic brine (see the table below showing the synthetic brine composition) were mixed with a 10% solution (Solution 2) of Product A in the synthetic brine. The two sets of solutions were mixed with Solution 2 (i.e., each of Solutions 1B through 1G were mixed with Solution 2) at ratios of 10:90, 30:70, 50:50, 70:30 and 90:10 to indicate that no precipitate would form at any concentration in the mixing concentration range from 10:90 to 90:10. These compatibility screening tests indicate that it is unlikely for any incompatibility to be experienced during deployment and flow back of a squeeze treatment. Any incompatibilities under ambient conditions were observed visually from solution clarity and/or precipitate. The samples were then heated to the test temperature (80° C.) and any further incompatibilities after 2 and 24 hours recorded.

[2] = Coreflood on Bandera outcrop cores; details: post versus pre treatment
Protocol: Two corefloods were carried out simultaneously on two Bandera outcrop cores (1.5″ diameter by 3″ length), using a Scaled Solutions dual coreflood apparatus. The composition of these cores is set out in the table below:
Both cores were wrapped with PTFE tape and cased in heat shrink tubing prior to insertion into a Viton sleeve and mounted in a Hassler type core holder with a confining pressure of 1200 psi. Both cores were then flushed with synthetic brine at 1 mL/min for at least 2 hours and until the differential pressure was stable. Brine was flushed at 0.5 mL/min overnight.
Both cores were saturated with synthetic brine under ambient conditions in the forward direction at 1 mL/min for 10 minutes, 2 mL/min for 10 minutes, 3 mL/min for 10 minutes, and 4 mL/min for 2 hours and until the differential pressure was stable. After a stable differential pressure was achieved, the permeability to brine was measured in the forward flow by flooding at 4, 3, 2, 1 mL/min at room temperature.
Brine was then injected into both cores in the forward direction at 1 mL/min until the oven reached a temperature of 80° C. […] Following plug saturation, the permeability of each core to synthetic brine was measured in the forward flow by flooding at 4, 3, 2, and 1 mL/min at 80° C. […]
Both cores were injected with synthetic brine at 2 mL/min with effluent samples being collected. The samples were analyzed by ICP. […]

[3] = Toxicity: LC50 Fathead Minnow; details: in vivo
Protocol: (§1) Product A was evaluated for toxicity using various tests.

[4] = test system: Algae; test: Toxicity: EC50 Algae
Protocol: as §1

[5] = test system: Daphnia Magna; test: Toxicity: EC50 Daphnia Magna; assay type: in vivo
Protocol: as §1

[6] = test system: Rat; test: Toxicity: LC50 Rat; details: in vivo
Protocol: as §1

[7] = assay type: cell-based
Protocol: as §1

[8] = Biodegradation
Protocol: as §1

[9] = Microtox; assay type: cell-based
Protocol: as §1

[10] = 10% scale inhibitor solution : 10% Product A solution in synthetic brine, ambient, then 80° C. 2 and 24 hours
[11] = 10% solutions in synthetic brine, with Product A
[12] = ratio 30:70 (second column), 10% solutions in synthetic brine, with Product A
[13] = ratio printed 30:70 (fourth column), 10% solutions in synthetic brine, with Product A

| Permeability Recovery [2] | Molecule | Clarity of Mixed Solutions 10:90 [1, 10] | Clarity of Mixed Solutions 10:90 [1, 11] | Clarity of Mixed Solutions 30:70 [1, 12] | Clarity of Mixed Solutions 50:50 [1, 11] | Clarity of Mixed Solutions 30:70 [1, 13] | LC50 [3] | EC50 [4] | EC50 [5] | LC50 Rat [6] | Ames Test [7] | Biodegradation [8] | IC50 ([9]; 5 min, read-out: 5-min IC50 (95% CI)) | IC50 ([9]; 0.25 h, 15 min, read-out: 15-min IC50 (95% CI)) |
| --- | --- | --- | --- | --- | --- | --- | --- | --- | --- | --- | --- | --- | --- | --- |
| 75% | O=P(O)(O)CN(CCCCCCN(CP(=O)(O)O)CP(=O)(O)O)CCCCCCN(CP(=O)(O)O)CP(=O)(O)O [Product B, BHMT phosphonate] | C | C | C | C | C |  |  |  |  |  |  |  |  |
|  | C[N+](C)(C)CC(O)C[N+](C)(C)C.[Cl-].[Cl-] [Product A, 1,3-propandiaminium, 2-hydroxy-N,N,N,N′,N′,N′-hexamethyl-, dichloride] |  |  |  |  |  | > 1000 µg/mL | 1500 µg/mL | 186 µg/mL | 4,000 mg/kg | Non- | 9% | > 4000 µg/mL | > 4000 µg/mL |
|  | DETA phosphonate [Product C] | C | C | C | C | C |  |  |  |  |  |  |  |  |
